Counter-ions that a name gives are not always drawn.
Experiments:
[1] = format: in vitro ADME; settings: simulated gi fluid, 1 µM, pH 1.6
Procedure: This assay was used to assess the stability of a conjugate in a stomach.
Medium was prepared by dissolving 2 g of sodium chloride in 0.6 L in ultrapure water (MilliQ®, Millipore Sigma, Darmstadt, Germany). The pH was adjusted to 1.6 with 1N hydrochloric acid, and the volume was then adjusted to 1 L with purified water.
60 mg FaSSIF powder (Biorelevant™, London, UK) were dissolved in 500 mL buffer (above). Pepsin was added (0.1 mg/mL) (Millipore Sigma, Darmstadt, Germany), and the solution was stirred. The resulting SGF media were used fresh for each experiment.
Test compounds were dissolved in DMSO stock to 1 mM. An aliquot of the DMSO stock solution was removed and diluted in the SGF Media in 15 mL falcon tubes to generate a total compound concentration of 1 μM. A 1 mL aliquot was immediately removed and diluted once with 1 volume of acetonitrile for T0 timepoint. The mixture was sealed and mixed at 37° C. in an incubator. Aliquots (1 mL) were removed at regular intervals and immediately quenched by the addition of 1 volume of acetonitrile. The resulting samples were analyzed by LCMS to determine degradation rates in SGF.

[2] = format: in vitro ADME; settings: simulated gi fluid, 1 µM, pH 6.7
Procedure: This assay was used to assess the stability of a conjugate in a small intestine.
Phosphate buffer was prepared by dissolving 0.42 g of sodium hydroxide pellets and 3.95 g of monobasic sodium phosphate monohydrate and 6.19 g of sodium chloride in ultrapure water (MilliQ®, Millipore Sigma, Darmstadt, Germany). The pH was adjusted to 6.7 using aq. HCl and aq. NaOH, as necessary, and the solution was diluted with ultrapure water to produce 1 L of the pH 6.7 buffer.
112 mg FaSSIF powder (Biorelevant™, London, UK) was dissolved in 50 mL of the pH 6.7 buffer. 2 to 3 mL of the resulting solution were then added to 500 mg pancreatin (Millipore Sigma, Darmstadt, Germany). The resulting mixture was agitated by finger tapping the vessel containing the mixture until milky suspension formed. At this time, the remainder of the 50 mL FaSSiF/pH 6.7 buffer solution was added. The resulting suspension was flipped upside down 10 times to produce SIF, which was used fresh.
Test compounds were dissolved in DMSO stock to 1 mM. An aliquot of the DMSO stock solution was removed and diluted in the SIF media in 15 mL falcon tubes to produce a mixture with a tested compound concentration of 1 μM. A 1 mL aliquot was immediately removed and diluted once with 1 volume of acetonitrile for T0 timepoint. The mixture was sealed and agitated at 37° C. in an incubator. Aliquots (1 mL) were removed at regular intervals and immediately quenched by the addition of 1 volume of acetonitrile. The resulting samples were analyzed by LCMS to determine degradation rates.

[3] = format: in vitro ADME; settings: 1 µM
Procedure: This assay was used to assess the stability of a conjugate in a large intestine.
All experiments were performed in an anaerobic chamber containing 90% nitrogen, 5% hydrogen and 5% carbon dioxide. Colonic material was resuspended as a slurry (15% w/v final concentration) in pre-reduced, anaerobically sterilized dilution blanks (Anaerobe Systems AS-908). The colonic material was then inoculated into 96 well plates containing YCFAC media (Anaerobe Systems AS-680, 6.7 μL slurry into 1 mL total media). A compound was added to each individual well to reach a final analyte concentration of 1 μM, and the material was mixed by pipetting. Each sample was removed after set timepoints (0, 120, 240, 480, 1440, 2880 minutes after initiation of the assay), quenched with acetonitrile containing internal standard, and analyzed by LCMS.

[4] = target: CutC from Proteus mirabilis (Proteus mirabilis, UniProt B4EYG1); experiment: Cell-based assay for TMA production from a native producer (P. mirabilis); settings: d9-TMA from 1 mM d9-choline, 5 h, 37° C.; value 10 given when no fit or % TMA remaining at 10 μM higher than 15%; read-out: Average IC50 Whole cell P. mirabilis
Method in brief: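 Overnight anaerobic cultures of P. mirabilis or C. sporogenes, grown in BHI with 1 mM choline, were diluted and given 1 mM (trimethyl-d9)-choline plus compound at 10 μM final. After 5 h at 37° C., d9-TMA was quantified by LCMS.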

CutC/D enzyme = experiment: Acute mouse model (plasma TMAO on choline diet); format: in vivo, male C57BL/6 mice
Method in brief: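 Male C57BL/6 mice fed a diet with 1.0% choline (g/g) received compound in water by oral gavage once daily on days 1–3. Plasma taken 20 h after the last dose was protein-precipitated and TMAO quantified by LC-MS/MS against a 0.05-100 μM d9-TMAO calibration curve in control plasma.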

in vivo = experiment: in vivo; design: species or system Sprague-Dawley rats; settings: Sprague-Dawley, rat
Procedure: Sprague-Dawley rats (three rats per compound) were treated with a single intravenous (IV) 1 mg/kg dose or orally (PO) a single 10 mg/kg dose. Plasma concentrations of the conjugates were determined by LCMS at 5 minutes, 15 minutes, 30 minutes, 1 hour, 2 hours, 4 hours, 8 and 24 hours post compound administration. […] In addition, the plasma exposure and bioavailability of the active agent of was lower when dosed as a conjugate instead of the active agent alone.

[5] = Caco-2 permeability assay; format: in vitro ADME; settings: human, Caco-2, pH 7.4
Procedure: Preparation of Caco-2 Cells: 50 μL and 25 mL of cell culture medium were added to each well of the Transwell insert and reservoir, respectively. The HTS transwell plates were incubated at 37° C., 5% CO2 for 1 hour before cell seeding. […] Cell culture medium was replaced every other day, beginning no later than 24 hours after initial plating.
Assessment of Cell Monolayer Integrity: Medium was removed from the reservoir and each Transwell insert and replaced with prewarmed fresh culture medium. Transepithelial electrical resistance (TEER) across the monolayer was measured using Millicell Epithelial Volt-Ohm measuring system (Millipore, USA). The Plate was returned to the incubator once the measurement was done. The TEER value was calculated according to the following equation: […]
Preparation of Solutions: 2 mM stock solutions in DMSO of control compounds were prepared and diluted with HBSS (10 mM HEPES, pH 7.4) to get 10 μM working solution. 0.2 mM stock solutions of test compounds in DMSO were prepared and diluted with HBSS (10 mM HEPES, pH 7.4 with 0.5% BSA) to get 1 μM working solution. Metoprolol, erythromycin and cimetidine were used as control compounds.
The Caco-2 plate was removed from the incubator. The monolayer was washed twice with pre-warmed HBSS (10 mM HEPES, pH 7.4). The plate was incubated at 37° C. for 30 minutes. To determine the rate of drug transport in the apical to basolateral direction, 125 μL of the working solution was added to the Transwell insert (apical compartment). A 50 μL sample was transferred immediately from the apical compartment to 200 μL of acetonitrile containing IS (100 nM alprazolam, 200 nM Caffeine and 100 nM tolbutamide) in a new 96-well plate as the initial donor sample (A-B) and it was vortexed at 1000 rpm for 10 minutes. The wells in the receiver plate (basolateral compartment) were filled with 235 μL of transport buffer. To determine the rate of drug transport in the basolateral to apical direction, 285 μL of the working solution were added to the receiver plate wells (basolateral compartment). A 50 μL sample was transferred immediately from the basolateral compartment to 200 μL of acetonitrile containing IS (100 nM alprazolam, 200 nM Caffeine and 100 nM tolbutamide) in a new 96-well plate as the initial donor sample (B-A) and it was vortexed at 1000 rpm for 10 minutes. The Transwell insert (apical compartment) was filled with 75 μL of transport buffer. The apical to basolateral direction and the basolateral to apical direction need to be done at the same time. The plates were incubated at 37° C. for 2 hours. At the end of the incubation, 50 μL samples from donor sides (apical compartment for Ap→Bl flux, and basolateral compartment for B1→Ap) and receiver sides (basolateral compartment for Ap→Bl flux, and apical compartment for B1→Ap) were transferred to wells of a new 96-well plate, followed by the addition of 4 volume of acetonitrile containing IS (100 nM alprazolam, 200 nM Caffeine and 100 nM tolbutamide). Samples were vortexed for 10 minutes, 50 μL samples were transferred to wells of a new 96-well plate, followed by the addition of 50 μL Hepes and 200 μL IS. All samples were vortexed for 10 minutes, and then centrifuged at 3,220 g for 40 minutes. An aliquot of 150 μL of the supernatant was mixed with an appropriate volume of ultra-pure water before LC-MS/MS analysis.
Apparent permeability (Papp) can be calculated for drug transport assays using the following equation: […]
Papp is apparent permeability (cm/s×10^−6);
Papp (B-A) indicates the apparent permeability coefficient in basolateral to apical direction, and
Papp (A-B) indicates the apparent permeability coefficient in apical to basolateral direction.

CutC from Proteus mirabilis, sequence (B4EYG1 entry or part of it): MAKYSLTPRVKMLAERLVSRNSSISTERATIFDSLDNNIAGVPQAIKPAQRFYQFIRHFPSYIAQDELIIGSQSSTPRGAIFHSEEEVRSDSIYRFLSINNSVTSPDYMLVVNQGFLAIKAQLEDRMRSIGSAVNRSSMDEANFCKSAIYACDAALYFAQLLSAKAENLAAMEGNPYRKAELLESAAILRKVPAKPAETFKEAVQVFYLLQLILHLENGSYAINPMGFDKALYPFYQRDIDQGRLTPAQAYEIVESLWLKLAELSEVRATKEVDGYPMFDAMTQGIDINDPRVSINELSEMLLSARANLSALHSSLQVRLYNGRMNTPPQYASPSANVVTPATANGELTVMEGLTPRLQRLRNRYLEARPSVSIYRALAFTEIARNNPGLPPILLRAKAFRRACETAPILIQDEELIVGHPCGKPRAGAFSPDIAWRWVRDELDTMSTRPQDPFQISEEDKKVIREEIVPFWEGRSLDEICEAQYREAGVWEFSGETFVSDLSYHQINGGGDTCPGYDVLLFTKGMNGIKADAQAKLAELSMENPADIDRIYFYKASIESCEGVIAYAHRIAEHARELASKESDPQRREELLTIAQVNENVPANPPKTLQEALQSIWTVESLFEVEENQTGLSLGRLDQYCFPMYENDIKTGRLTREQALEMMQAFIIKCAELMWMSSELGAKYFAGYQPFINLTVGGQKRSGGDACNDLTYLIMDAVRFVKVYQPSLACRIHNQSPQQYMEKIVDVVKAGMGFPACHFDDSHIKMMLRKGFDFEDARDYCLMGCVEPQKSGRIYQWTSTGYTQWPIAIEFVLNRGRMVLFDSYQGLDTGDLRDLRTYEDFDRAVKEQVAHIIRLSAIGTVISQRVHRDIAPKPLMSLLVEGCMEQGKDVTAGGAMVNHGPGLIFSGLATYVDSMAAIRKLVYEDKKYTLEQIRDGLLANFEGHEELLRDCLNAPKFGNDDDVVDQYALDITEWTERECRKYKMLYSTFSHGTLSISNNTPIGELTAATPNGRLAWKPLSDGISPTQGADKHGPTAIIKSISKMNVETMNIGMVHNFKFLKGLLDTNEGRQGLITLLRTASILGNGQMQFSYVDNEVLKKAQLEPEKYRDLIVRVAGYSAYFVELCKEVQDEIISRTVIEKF
CutC from Proteus mirabilis, sequence (B4EYG0 entry or part of it, further chain): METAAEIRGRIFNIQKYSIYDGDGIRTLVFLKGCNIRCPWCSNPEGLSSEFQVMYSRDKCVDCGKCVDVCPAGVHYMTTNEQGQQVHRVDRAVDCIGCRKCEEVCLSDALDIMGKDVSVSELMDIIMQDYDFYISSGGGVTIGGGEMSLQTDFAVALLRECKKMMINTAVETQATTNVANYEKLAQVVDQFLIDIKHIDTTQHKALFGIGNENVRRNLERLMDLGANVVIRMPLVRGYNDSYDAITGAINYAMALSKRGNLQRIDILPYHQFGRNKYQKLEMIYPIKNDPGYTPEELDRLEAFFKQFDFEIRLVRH

## C#CC[N+](C)(C)CC(=O)O[C@@H]1O[C@H](COC(C)=O)[C@@H](OC(C)=O)[C@H](OC(C)=O)[C@H]1OC(C)=O [Compound 303, N,N-dimethyl-N-(2-oxo-2-(((2S,3R,4S,5R,6R)-3,4,5-triacetoxy-6-(acetoxymethyl)tetrahydro-2H-pyran-2-yl)oxy)ethyl)prop-2-yn-1-aminium Trifluoroacetate]
[1]
  Assay 1- FaSSGF Stability: % Remaining at 1 hr: 60.49%
[2]
  Assay 2- FaSSIF Stability: % Remaining at 4 hr: 0.03%
[3]
  Assay 3- Colonic Material Stability Assay % Remaining at 24 hr: 0.16%

## C#CC[N+](C)(C)CC(=O)OC[C@H]1OC(OC(C)=O)[C@H](OC(C)=O)[C@@H](OC(C)=O)[C@@H]1OC(C)=O.O=C([O-])C(F)(F)F (stereo partly drawn) [Compound 304, N,N-dimethyl-N-(2-oxo-2-(((2R,3R,4S,5R)-3,4,5,6-tetraacetoxytetrahydro-2H-pyran-2-yl)methoxy)ethyl)prop-2-yn-1-aminium Trifluoroacetate]
[1]
  Assay 1- FaSSGF Stability: % Remaining at 1 hr: 114.28%
[2]
  Assay 2- FaSSIF Stability: % Remaining at 4 hr: 13.44%
[3]
  Assay 3- Colonic Material Stability Assay % Remaining at 24 hr: 0.94%

## C#CC[N+](C)(C)CCO[C@@H]1CO[C@H]2[C@@H]1OC[C@@H]2O [Compound 72, N-(2-(((3R,3aR,6S,6aR)-6-hydroxyhexahydrofuro[3,2-b]furan-3-yl)oxy)ethyl)-N,N-dimethylprop-2-yn-1-aminium trifluoroacetate]
[4]
  IC50: ≥ 10 µM
[1]
  Assay 1- FaSSGF Stability: % Remaining at 1 hr: 102.71%
[3]
  Assay 3- Colonic Material Stability Assay % Remaining at 24 hr: 110%

## C#CC[N+](C)(C)CCO[C@@H]1O[C@H](COC(C)=O)[C@@H](OC(C)=O)[C@H](OC(C)=O)[C@H]1OC(C)=O.[I-] [Compound 7, N,N-dimethyl-N-(2-(((2R,3R,4S,5R,6R)-3,4,5-triacetoxy-6-(acetoxymethyl)tetrahydro-2H-pyran-2-yl)oxy)ethyl)prop-2-yn-1-aminium Iodide]
[4]
  IC50: 3.16 µM
CutC/D enzyme; Table 4a, 358 mg/kg oral gavage days 1-3
  % change from vehicle control + choline diet: −79.95%
CutC/D enzyme; Table 4a, 358 mg/kg oral gavage days 1-3, plasma 20 h after last gavage
  Mean plasma TMAO: 6.90 µM
CutC/D enzyme; Table 4c, 35.8 mg/kg oral gavage days 1-3
  % change from vehicle control + choline diet: −2.97%
CutC/D enzyme; Table 4c, 35.8 mg/kg oral gavage days 1-3, plasma 20 h after last gavage
  Mean plasma TMAO: 20.4 µM
CutC/D enzyme; Table 4c, 107 mg/kg oral gavage days 1-3
  % change from vehicle control + choline diet: −24.83%
CutC/D enzyme; Table 4c, 107 mg/kg oral gavage days 1-3, plasma 20 h after last gavage
  Mean plasma TMAO: 15.8 µM
CutC/D enzyme; Table 4c, 358 mg/kg oral gavage days 1-3
  % change from vehicle control + choline diet: −69.46%
CutC/D enzyme; Table 4c, 358 mg/kg oral gavage days 1-3, plasma 20 h after last gavage
  Mean plasma TMAO: 6.41 µM
In vivo; iv, 1 mg/kg
  Cmax: 19.7 µM
In vivo; po, 10 mg/kg
  Cmax: 0.0162 µM
  bioavailability: 1.1%
[5]
  Papp A→B at 2 h, 1 µM: 0.1 ×10⁻⁶ cm/s
  Papp B→A at 2 h, 1 µM: 0.15 ×10⁻⁶ cm/s

## CC(=O)OC[C@H]1O[C@@H](OCC[N+](C)(CF)C2CC2)[C@H](OC(C)=O)[C@@H](OC(C)=O)[C@@H]1OC(C)=O.[I-] (stereo partly drawn) [Compound 86, N-(fluoromethyl)-N-methyl-N-(2-{[(2R,3R,4S,5R,6R)-3,4,5-tris(acetyloxy)-6-[(acetyloxy)methyl]oxan-2-yl]oxy}ethyl)cyclopropanaminium Iodide]
[4]
  IC50: ≥ 10 µM
CutC/D enzyme; Table 4g, 37.3 mg/kg oral gavage days 1-3
  % change from vehicle control + choline diet: −33%
CutC/D enzyme; Table 4g, 37.3 mg/kg oral gavage days 1-3, plasma 20 h after last gavage
  Mean plasma TMAO: 18.6 µM
CutC/D enzyme; Table 4g, 112 mg/kg oral gavage days 1-3
  % change from vehicle control + choline diet: −83%
CutC/D enzyme; Table 4g, 112 mg/kg oral gavage days 1-3, plasma 20 h after last gavage
  Mean plasma TMAO: 4.72 µM
[3]
  Assay 3- Colonic Material Stability Assay % Remaining at 24 hr: 56%

— patent US20220041641A1, “QUATERNARY AMMONIUM SALTS AS INHIBITORS OF TRIMETHYLAMINE PRODUCTION” (Senda Biosciences, Inc., priority 2018, published 2022)
